Results taken from the NIST ThermoML archive (doi:10.1016/j.fluid.2015.03.003).
Numbers after ± are expanded uncertainties.

Conditions: 298.15 K, 101.33 kPa, Liquid; for electrical conductivity: Alternating current cell with electrodes; for mass density: Pycnometric method; for viscosity: Vibrating wire viscometry

| electrical conductivity [S/m] | mass density [kg/m3] | viscosity [mPa·s] | Compound |
| --- | --- | --- | --- |
| 0.918 ± 0.006 | 1200 ± 560 | 11.1 ± 1.8 | CCCCn1cc[n+](CCCC)c1.[Br-] [1,3-dibutylimidazolium bromide] |
| 0.403 ± 0.006 | 1250 ± 610 | 67.6 ± 13 | CC(C)Cn1cc[n+](CC(C)C)c1.[Br-] [1,3-diisobutylimidazolium bromide] |
| 0.08 ± 0.01 | 1230 ± 330 | 363 ± 110 | CCCCn1cc[n+](C)c1.[Br-] [1-butyl-3-methylimidazolium bromide] |
| 0.2 ± 0.004 | 1260 ± 340 | 134 ± 28 | CC(C)Cn1cc[n+](C)c1.[Br-] [1-isobutyl-3-methylimidazolium bromide] |
